Data as given in BigSolDB 2.1.

CCCCCCCCCCCCCCCCCC
Conditions | solubility (mole fraction)
in cyclohexane, 281.45 K | 0.214
in cyclohexane, 284.35 K | 0.265
in cyclohexane, 287.2 K | 0.35
in cyclohexane, 290.95 K | 0.445
in cyclohexane, 294.8 K | 0.576
in cyclohexane, 297.05 K | 0.704
in ethanol, 283.05 K | 0.0018
in ethanol, 285.75 K | 0.0025
in ethanol, 287.7 K | 0.0032
in ethanol, 289.25 K | 0.0038
in ethanol, 291 K | 0.0047
in ethanol, 292.6 K | 0.0058
in ethanol, 294.35 K | 0.0072
in ethanol, 296.2 K | 0.0093
in ethanol, 297.95 K | 0.0122
in ethanol, 299.45 K | 0.0162
in n-heptane, 276.9 K | 0.124
in n-heptane, 279 K | 0.151
in n-heptane, 281.4 K | 0.183
in n-heptane, 283.7 K | 0.225
in n-heptane, 287.6 K | 0.314
in n-heptane, 290.15 K | 0.393
in n-heptane, 291.9 K | 0.458
in n-heptane, 293.65 K | 0.524
in n-heptane, 296.4 K | 0.647
in n-heptane, 297.65 K | 0.733

CCCCCCCCCCCCCCCCCCC
Conditions | solubility (mole fraction)
in cyclohexane, 282.25 K | 0.201
in cyclohexane, 283.95 K | 0.233
in cyclohexane, 286.65 K | 0.29
in cyclohexane, 289.65 K | 0.359
in cyclohexane, 292.8 K | 0.458
in cyclohexane, 295.65 K | 0.553
in cyclohexane, 297 K | 0.6
in cyclohexane, 301.75 K | 0.75
in ethanol, 282.7 K | 0.0011
in ethanol, 284.8 K | 0.0014
in ethanol, 286 K | 0.0016
in ethanol, 287.4 K | 0.0019
in ethanol, 288.7 K | 0.0022
in ethanol, 289.95 K | 0.0025
in ethanol, 290.95 K | 0.003
in ethanol, 292.45 K | 0.0035
in ethanol, 293.75 K | 0.0041
in ethanol, 295.6 K | 0.0051
in ethanol, 297.25 K | 0.0062
in ethanol, 300.85 K | 0.0083
in ethanol, 303.85 K | 0.0115
in n-heptane, 278.25 K | 0.129
in n-heptane, 279.5 K | 0.145
in n-heptane, 280.95 K | 0.164
in n-heptane, 282.45 K | 0.19
in n-heptane, 284.25 K | 0.22
in n-heptane, 286.55 K | 0.256
in n-heptane, 288.7 K | 0.314
in n-heptane, 290.95 K | 0.393
in n-heptane, 293.7 K | 0.478
in n-heptane, 296.95 K | 0.611
in n-heptane, 302.3 K | 0.786
